Some results are limits rather than exact numbers.

As usually defined, the melting point is the temperature, or range, at which the solid turns liquid. In turn, `CN1C(C(=O)Nc2cccccc2=O)=C(O)c2sccc2S1(=O)=O` returned a melting point of 242 to 245 °C.
On to `CCCCOC(=O)C(=O)Nc1ccccn1`, for which the melting point fell in the range of 35 to 37 °C.
With `CCOP(=O)(CCN1CCC(N(CCCN)S(=O)(=O)c2ccc(Nc3nccc(Nc4ccc(F)cc4)n3)cc2)CC1)OCC` the figure was 125 to 130 °C; with `CC(C)(C)OC(=O)c1cc([N+](=O)[O-])cc([N+](=O)[O-])c1N(CCO)CCCl`, 106 to 107 °C; with `CCC(=NOCC=Cc1ccc(Br)cc1)C1=C(O)CC(C2CCCSC2)CC1=O` (stereo not given), 97 to 99 °C.
With `OCC1OC(n2cnc3c(NCc4ccc(Br)cc4)ncnc32)C(O)C1O` (stereo not given) the figure was 179 °C; with `CC(O)c1ccc2c(c1)CCC(=O)N2` (stereo not given), 174 °C.
The figure for `CC(C)(OCc1cc2cc(C(F)(F)F)ccc2n1S(=O)(=O)c1ccc2c(c1)OCCO2)C(=O)O` is 75 °C; for `CCCn1c(C)nc2cc(C(=O)O)ccc21` it is more than 260 °C; for `COC(=O)c1cccc2c1ccn2S(=O)(=O)c1ccc(C)cc1` it is 145 to 147 °C.
Compound `O=C(C=Cc1cccc(S(=O)(=O)Nc2cccc3ccccc23)c1)NO` showed a melting point of 180 °C.
Regarding `Cc1cccc(OC(C)C)c1S(N)(=O)=O`, the melting point came out at 78 °C.
`CC1=C(C(=O)OCCOc2ccccc2)C(c2ccccc2C(F)(F)F)c2c(ccnc2OC(C)C)N1` (stereo not given) showed a melting point of 110 to 113 °C.
As to `O=S(=O)(c1ccc(OCCO)cc1)C(Br)(Br)Br`, the melting point is 157 to 162 °C.
The compound `N#Cc1cc(C(=O)c2ccncc2)ccc1O` had a melting point of 310 to 311 °C.
Consider `N#Cc1ccc2[nH]c(-c3ccc(-c4ccc(C#N)c(F)c4)cc3)nc2c1`, for which the melting point is 302 to 305 °C.
Take `CCCNC(=S)c1ccc2c(c1)N(C(C)CN(CC)CC)c1ccc(Cl)cc1S2` (racemic): the melting point came out at 130 °C.
The figure for `CCOC(=O)NC(=O)n1c(-c2cc(OC)c(O)c(OC)c2)nc(-c2ccc(N(CC)CC)cc2)c1-c1ccc(N(CC)CC)cc1` is 60 °C; for `COC(=O)C(=O)c1occc1/C=C/c1ccccc1` it is 116 °C; for `C=S1c2ccccc2N(CCN2CCOCC2)C(=O)C1c1ccc(Cl)cc1` (stereo not given) it is 169 to 173 °C.
With `O=Cc1cc(Cl)cc2c1OCCC2`, the melting point was 83 to 86 °C.
In the case of `CCN1CCc2cc(Nc3ncc(Cl)c(N[C@@H]4CCCC[C@H]4NS(C)(=O)=O)n3)c(OC)cc2CC1=O`, the melting point lay within 139 to 150 °C.
As to `COC(=O)C12OC1(Cc1ccc(Cl)cc1)CCC2(C)C` (stereo not given), the melting point was in the range of 86 to 87 °C.
Take `Cn1c(C(F)(F)F)cc(C#N)c1-c1ccc(Cl)cc1`: the melting point stood at 130 °C.
The figure for `O=C(CC(F)=C(F)F)Oc1ccc([N+](=O)[O-])cc1` is 58 to 62 °C.
Compound `Fc1cc2c(Nc3ccc(F)c(C(F)(F)F)c3)ncnc2cn1` yielded a melting point of 247 to 249 °C.
With `Cc1cc(C(O)=S)c(Cl)cc1Cl` the figure was 187 °C.
On to `COCOc1cc(F)ccc1-c1cc(-c2cccc(NC(=O)CN3CCCCC3)c2)c(C#N)c(NC(=O)c2ccco2)n1`, for which the melting point is 140 to 142 °C.
`O=C(O)CCc1ccc2c(c1)Cc1ccccc1CO2` came in with a melting point of 181 to 183 °C.
The figure for `COc1nc2c(C)cccc2c2c1CCN2c1ccccc1C` is 107 to 108 °C; for `CCCOc1ccccc1-c1nc2c(CCCCc3ccccc3)cccc2c(=O)[nH]1` it is 82 °C; for `NC1CCN(c2cccc(Cl)n2)CC1` it is 36 to 38 °C.
The compound `COC(=O)c1nc(Cl)nc(NCc2ccco2)c1Cl` displayed a melting point of 110 to 112 °C.
`c1cnc(NCCCNCC2CCc3ccc4c(c3O2)CCCC4)nc1` (stereo not given) returned a melting point of 57.6 °C.
With `CCCCCCCCCCN1CCCN(O)C1=O` the figure was 45 to 46 °C; with `O=c1c2ccccc2ncn1C1CCN(Cc2ccccc2)CC1`, 147 °C.
With `O=C(O)c1cc2c(F)c(F)c(F)c(F)c2s1`, the melting point is 200 °C.
The figure for `CC(C)COC(=O)C1(F)C(=O)NC(=O)NC1O/N=C\c1ccco1` (stereo not given) is 159 to 160 °C; for `O=C(c1ccc([N+](=O)[O-])cc1[N+](=O)[O-])N1CCOCC1` it is 159 to 161 °C; for `COC(=O)Nc1cc(C(C)(C)C)[nH]n1` it is 177 °C.
In the case of `O=C(c1ccccc1)N1CCc2[nH]c3cccc(-c4cc(F)cc(F)c4)c3c2CC1`, the melting point lay in the range of 198 to 201 °C.
With `COC(=O)C(Cl)=Cc1cc(-n2c(OC)nc(C(F)(F)F)cc2=O)ccc1Cl` the figure was 151 to 152 °C; with `CC(C)(C)Oc1ccc(S(=O)(=O)N2c3ccccc3C[C@H]2C(=O)NCCOc2ccc(CC(=O)O)cc2)cc1`, 68 to 71 °C; with `O=c1c(CCCc2ccco2)cc2cccnc2n1-c1cccc([N+](=O)[O-])c1`, 166 to 167 °C.
`CC(C)c1sc(C(O)(C(F)(F)F)C(F)(F)F)nc1-c1ccc(S(C)(=O)=O)cc1` came in with a melting point of 122 to 123 °C.
The figure for `CCOC(=O)C1Cc2ccc(C(=O)c3ccc(NC(C)=O)c(Cl)c3)cc2C1` (stereo not given) is 126 to 127 °C.
With `CCSNc1c(C#N)cnn1-c1c(Cl)cc(C(F)(F)F)cc1Cl` the figure was 157 to 158 °C.
In turn, `CCNP(=O)(Cc1ccc(NC(=O)C2=Cc3cc(C4CCCCC4)ccc3CC2)cc1)NCC` yielded a melting point of 163 to 165 °C.
The figure for `CC(C)(C)OC(=O)Nc1ccc(O)c(C(=O)O)c1` is more than 270 °C.
The figure for `O=Cc1ccc(OC2OC(CO)C(O)C(O)C2O)cc1` (stereo not given) is 177 °C.
`COc1ccccc1Nc1nnc(Cc2ccncc2)c2ccccc12`: the melting point was 190 to 191 °C.
`Nc1ccc(-c2noc(-c3cnn4c(C(F)(F)F)cc(-c5ccc(F)c(F)c5)nc34)n2)cn1`: the melting point is 262 °C.
`O=[N+]([O-])c1ccc(N2C[C@@H]3C[C@H]2CS3)cc1F` registered a melting point of 97 to 98 °C.
Compound `O=C(CNc1ccc2[nH]c(=O)sc2c1)N1CCC(Cc2ccccc2)CC1` gave a melting point of 196 to 199 °C.
`O=S1(=O)NC(C2CCCCC2)Nc2ccc(S(=O)(=O)N3CCOCC3)cc21` (stereo not given) displayed a melting point of 262 to 264 °C.
In turn, `CCCN1C(=O)C2CC(c3ccc(N(C)C)cc3)(C2)C1=O` had a melting point of 134 to 135 °C.
For `CC1(C)CC(C)(C)CC(C)(NC=O)C1`, the melting point lay within 104 to 106 °C.
For `COc1ccc(C(=O)Nc2ccc(F)cc2)cc1Nc1ccccc1`, the melting point fell in the range of 151 to 152 °C.
The figure for `O=C(Nc1n[nH]c2cc(Cl)ccc12)c1ccccc1` is 188 °C; for `CCOc1ccc([N+](=O)[O-])c(NC23CC4CC(CC(C4)C2)C3)c1` it is 147 °C; for `CCc1cn(CC)cc(-c2cccc(C(F)(F)F)c2)c1=O` it is 67 to 70 °C.
Consider `O=c1nc(-c2cccc(Oc3ccccc3)n2)sc2ccccc12`, for which the melting point came to 161 °C.
As to `CSCc1cc(O)cc2cc(-c3ccc(O)cc3)oc12`, the melting point was in the range of 188 to 190 °C.
`Cc1ccc2c(c1Cl)C(=O)N(C(C)(C(N)=O)C(C)C)C2=O` (stereo not given) showed a melting point of 215 to 218 °C.
Turning to `O=C(O)COc1ccc(C(=O)CCN2CCN(c3ccncc3)CC2)cc1`, the melting point lay in the range of 238 to 239 °C.
For the compound `CCCCn1c(=O)[nH]c2cccnc2c1=O`, the melting point was 200 to 210 °C.
For `COc1cc(Cl)c2c(-c3ccccc3F)noc2c1`, the melting point was in the range of 113 to 115 °C.
The figure for `CCn1c(=O)c2c(ncn2CCCCC(O)CO)n(CC)c1=O` (stereo not given) is 77 to 78 °C; for `c1ccc(-c2ccc(-c3cn4ccc5ccccc5c4n3)cc2)cc1` it is 221 to 222 °C.
With `CCN(CC)CCNC(=O)c1cc(N(C)S(C)(=O)=O)ccc1OC`, the melting point lay within 48 to 50 °C.
Turning to `CN1C(=O)CC[C@]2(C)c3ccc(C=Cc4cncc5ccccc45)cc3CC[C@@H]12`, the melting point was 183 to 185 °C.
With `C#CCC(C)C(=O)N1c2ccccc2C(=O)Nc2cccnc21` (stereo not given) the figure was 202 to 204 °C; with `CCCCC[C@@H](O)C=C[C@@H]1[C@@H](CC(=O)O)[C@@H](O)C[C@H]1O`, 105 to 107 °C; with `O=C(O)c1cccc(NCCOCc2ccccc2)c1C(=O)O`, 158 to 160 °C.
In the case of `CCOC(=O)CC[C@H](NC(=O)c1ccc(N2CCN(c3c(N)nc(N)nc3CC)CC2)cc1)C(=O)OCC`, the melting point lay within 226 to 228 °C.
In the case of `Cc1c(NC(=O)CC(C)(C)C)cc2c(c1C)OC(C)(C)C2Cc1ccccc1` (stereo not given), the melting point is 186 to 187 °C.
Turning to `O=C(O)COc1cc2cc(C3CCCCC3)sc2c(Cl)c1Cl`, the melting point fell in the range of 167 to 168 °C.
`CCOc1ccc(Br)c(Cl)c1F` registered a melting point of 48 to 48.5 °C.
Regarding `Cc1ccccc1-c1nn(C(C)(C)C(=O)N(C)C)cc1C`, the melting point lay in the range of 145 to 147 °C.
The compound `CCCCc1nc(C(O)(CC)CC)c(C(=O)OCC)[nH]1` yielded a melting point of 63 to 64 °C.
`CC(=O)Nc1ccc(S(=O)(=O)Nc2ccc(C(O)(C(F)(F)F)C(F)(F)F)cc2)cc1`: the melting point lay within 198 to 200 °C.
With `Nc1nc2ccccc2c2c1ncn2CCO`, the melting point lay in the range of 260 to 262 °C.
`CCCCCc1ccc(-c2ccc(C(C)=O)cc2)cc1` yielded a melting point of 81 to 82 °C.
Compound `CCOC(=O)C(NC(=O)C(C)C)C(=O)Cc1ccc(Cl)cc1Cl` (stereo not given) showed a melting point of 139 to 140 °C.
On to `O=C(Nc1ccc(-n2nc(C3CC3)cc2C2CC2)cc1)c1ccccc1`, for which the melting point was 133 to 138 °C.
`N#Cc1ccc(-c2ccc(OCc3ccccc3)cc2)cc1` showed a melting point of 150 to 152 °C.
The compound `Cc1c(-c2ccc([N+](=O)[O-])cc2)sc2c1c(=O)c(OC(C)C)cn2Cc1c(F)cccc1F` came in with a melting point of 188 to 189 °C.
The figure for `CC(C)(C)c1cc(-c2cccs2)cc2c1OCC2(C)C` is 61 to 63 °C; for `COc1cc([N+](=O)[O-])c(NCCO)c([N+](=O)[O-])c1` it is 104 °C; for `CC1COc2c(F)c(F)cc3c2N1C(=O)C3=O` (stereo not given) it is 169 to 171 °C.

These data come from a melting point compilation (Tetko et al.; mined from patent text by program, amines drawn as free bases though some values may be those of a salt).
